Measured values from PMC9609824 (Molecules, 2022).
Read-outs that look alike come from different tables or passages of the source.

How the values were obtained:
[1] = test system: CYP2C9 and CYP2C19; settings: metabolized by CYP2C9 and CYP2C19; cited from earlier work
[2] = freeze–thaw stability (−80 °C, thawed at room temperature three times), High QC 1250
[3] = freeze–thaw stability (−80 °C, thawed at room temperature three times), Low QC 75
[4] = short-term stability T0 (room temperature, immediately after preparation), High QC 1250
[5] = short-term stability T0 (room temperature, immediately after preparation), Low QC 75
[6] = short-term stability T4 (freezer −80 °C, 4 h), High QC 1250
[7] = short-term stability T4 (freezer −80 °C, 4 h), Low QC 75
[8] = short-term stability T24 (freezer −80 °C, 24 h), High QC 1250
[9] = short-term stability T24 (freezer −80 °C, 24 h), Low QC 75

For `Cc1cnc(C(=O)NCCc2ccc(S(=O)(=O)NC(=O)N[C@H]3CCC[C@@H](O)C3)cc2)cn1` (relative stereo) [3-cis-hydroxyglipizide], the “Share of glipizide metabolized to the inactive metabolite” value [1] is listed as 15%.
In the case of `Cc1cnc(C(=O)NCCc2ccc(S(=O)(=O)NC(=O)N[C@H]3CC[C@H](O)CC3)cc2)cn1` [4-trans-hydroxyglipizide], the “Share of glipizide metabolized to the inactive metabolite” value [1] is listed as 71%.
With `Cc1cnc(C(=O)NCCc2ccc(S(=O)(=O)NC(=O)NC3CCCCC3)cc2)cn1` [GLZ, glipizide] the “Accuracy (% Error)” value (autosampler 24 h, High QC 1250) was −1.32%, the “Mean ± SD Measurable Conc.” value (autosampler 24 h, High QC 1250) was 1233.47 ± 71.06 ng/mL and the “Accuracy (% Error)” value (autosampler 24 h, Low QC 75) was 1.83%. The “Mean ± SD Measurable Conc.” value (autosampler 24 h, Low QC 75) was 76.37 ± 2.27 ng/mL, the “Accuracy (% Error)” value [2] was −1.59% and the “Mean ± SD Measurable Conc.” value [2] was 1230.17 ± 112.55 ng/mL. The “Accuracy (% Error)” value [3] was 4.86%, the “Mean ± SD Measurable Conc.” value [3] was 78.65 ± 4.84 ng/mL and the “Accuracy (% Error)” value [4] was −0.82%. The “Mean ± SD Measurable Conc.” value [4] was 1239.79 ± 68.22 ng/mL, the “Accuracy (% Error)” value [5] was 8.13% and the “Mean ± SD Measurable Conc.” value [5] was 81.10 ± 2.06 ng/mL. The “Accuracy (% Error)” value [6] was 2.82%, the “Mean ± SD Measurable Conc.” value [6] was 1285.25 ± 10.84 ng/mL and the “Accuracy (% Error)” value [7] was −6.68%. For the same compound, the “Mean ± SD Measurable Conc.” value [7] was 69.99 ± 1.61 ng/mL, the “Accuracy (% Error)” value [8] was 4.93% and the “Mean ± SD Measurable Conc.” value [8] was 1311.63 ± 30.52 ng/mL. The “Accuracy (% Error)” value [9] was −6.27% and the “Mean ± SD Measurable Conc.” value [9] was 70.30 ± 2.90 ng/mL.
